Assay results published in PMC8388771, “Cationic Peptidomimetic Amphiphiles Having a N-Aryl- or N-Naphthyl-1,2,3-Triazole Core Structure Targeting Clostridioides (Clostridium) difficile: Synthesis, Antibacterial Evaluation, and an In Vivo C. difficile Infection Model” (Antibiotics, 2021).
≈ marks a conversion by molar mass, not a printed value. Where two headings read alike, the source gives them in different places.

Columns and labels:
C. difficile ATCC 700057 = experiment: Primary MIC assay, C. difficile ATCC 700057; assay type: cell-based, Clostridioides difficile; settings: Clostridioides difficile
Experimental: (§1) The N-arytriazole and N-naphthyltriazole peptidomimetics were subjected to antimicrobial screening. […] Vancomycin, colistin, fluconazole, and tamoxifen were used as positive controls (see Table 1 for details).
(§2) Primary screening (Gram-positive bacteria). Primary MIC assays were performed as described by the Clinical and Laboratory Standards Institute for aerobic and anaerobic bacteria. MIC values for vancomycin were within acceptable QC ranges.

C. difficile 132 (RT027) = experiment: Primary MIC assay, C. difficile 132 (RT027); assay type: cell-based, Clostridioides difficile; settings: Clostridioides difficile, read-out: MIC C. difficile 132 (RT027)
Experimental: as §1, §2

S. aureus ATCC 29213 = experiment: Primary MIC assay, S. aureus ATCC 29213; assay type: cell-based; settings: Staphylococcus aureus
Experimental: as §1, §2

S. aureus NCTC 10442 = experiment: Primary MIC assay, S. aureus NCTC 10442 (MRSA); assay type: cell-based; settings: Staphylococcus aureus
Experimental: as §1, §2

E. faecalis ATCC 29212 = experiment: Primary MIC assay, E. faecalis ATCC 29212; assay type: cell-based, Enterococcus faecalis; settings: Enterococcus faecalis
Experimental: as §1, §2

S. pneumoniae ATCC 49619 = experiment: Primary MIC assay, S. pneumoniae ATCC 49619; assay type: cell-based, Streptococcus pneumoniae; settings: Streptococcus pneumoniae
Experimental: as §1, §2

E. coli ATCC 25922 [1] = experiment: Primary MIC assay, E. coli ATCC 25922; assay type: cell-based; settings: for MIC: Escherichia coli
[2] = Cytotoxicity (CC50) assay by CO-ADD; assay type: cell-based, human; settings: human, HEK293 cells (ATCC CRL-1573); Table 1; cytotoxicity on HEK293 cells, tested at ≤32 µg/mL
From the text: as §1
(§3) Secondary screening (MRSA and Gram-negative bacteria) and cytotoxicity assay–performed by the Community for Open Antimicrobial Drug Discovery (CO-ADD). Samples were provided to CO-ADD [29] for antimicrobial screening by whole cell growth inhibition assays.
Cytotoxicity Assay. These were performed as described previously.

human erythrocytes = experiment: Hemolysis assay, HC50 determination; assay type: cell-based
Experimental: Hemolysis assay (human erythrocytes)–HC50 determination. These were performed as described previously.

S. aureus ATCC 43300 = experiment: CO-ADD MIC assay, S. aureus ATCC 43300 (MRSA); assay type: cell-based; settings: Staphylococcus aureus, read-out: MIC S. aureus ATCC 43300
From the text: as §1, §3
(§4) Bacterial Inhibition–MIC Assay. These were performed as described previously.

P. aeruginosa ATCC 27853 = experiment: CO-ADD MIC assay, P. aeruginosa ATCC 27853; assay type: cell-based; settings: for MIC: Pseudomonas aeruginosa, ATCC27853, Table S1
From the text: as §1, §3, §4

[3] = system: K. pneumoniae ATCC 700603; experiment: CO-ADD MIC assay, K. pneumoniae ATCC 700603; assay type: cell-based; settings: for MIC: Klebsiella pneumoniae, ATCC700603, Table S1, multi-drug resistant
From the text: as §1, §3, §4

A. baumannii ATCC 19606 = experiment: CO-ADD MIC assay, A. baumannii ATCC 19606; assay type: cell-based; settings: for MIC: Acinetobacter baumannii, ATCC19606, Table S1
From the text: as §1, §3, §4

E. coli ATCC 25922 [4] = experiment: CO-ADD MIC assay, E. coli ATCC 25922; assay type: cell-based; settings: for MIC: Escherichia coli, ATCC25922, Table S1
From the text: as §1, §3, §4

C. albicans ATCC 90028 = experiment: CO-ADD MIC assay, C. albicans ATCC 90028; assay type: cell-based; settings: Candida albicans, ATCC90028, Table S1
From the text: as §1, §3

[5] = system: Cryptococcus neoformans var. grubii ATCC 208821; experiment: CO-ADD MIC assay, C. neoformans var. grubii ATCC 208821; assay type: cell-based; settings: Cryptococcus neoformans, ATCC208821, Table S1
From the text: as §1, §3

[6] = ATCC700057, Table 1, read-out: MIC C. difficile ATCC 700057
[7] = ATCC29213, Table 1, read-out: MIC S. aureus ATCC 29213
[8] = Table 1, MRSA, read-out: MIC S. aureus NCTC 10442
[9] = ATCC29212, Table 1, read-out: MIC E. faecalis ATCC 29212
[10] = ATCC49619, Table 1, read-out: MIC S. pneumoniae ATCC 49619
[11] = ATCC25922, Table 1, read-out: MIC E. coli ATCC 25922
[12] = Table 1, lysis of human erythrocytes
[13] = Table S1, footnote says lysis of sheep erythrocytes

| Compound | MIC (C. difficile ATCC 700057; [6]) [µg/mL] | MIC (C. difficile 132 (RT027); Table 1) [µg/mL] | MIC (S. aureus ATCC 29213; [7]) [µg/mL] | MIC (S. aureus NCTC 10442; [8]) [µg/mL] | MIC (E. faecalis ATCC 29212; [9]) [µg/mL] | MIC (S. pneumoniae ATCC 49619; [10]) [µg/mL] | MIC (E. coli ATCC 25922 [1]; [11]) [µg/mL] | CC50 [2] [µg/mL] | HC50 (human erythrocytes; [12]) [µg/mL] | HC50 (human erythrocytes; [13]) [µg/mL] | MIC (S. aureus ATCC 43300; Table S1, MRSA, CO-ADD) [µg/mL] | MIC (P. aeruginosa ATCC 27853) [µg/mL] | MIC [3] [µg/mL] | MIC (A. baumannii ATCC 19606) [µg/mL] | MIC (E. coli ATCC 25922 [4]) [µg/mL] | MIC (C. albicans ATCC 90028) [µg/mL] | MIC [5] [µg/mL] | further results |
| --- | --- | --- | --- | --- | --- | --- | --- | --- | --- | --- | --- | --- | --- | --- | --- | --- | --- | --- |
| CC(C)CCc1cn(-c2ccccc2OCC(=O)N[C@H](CCCNC(=N)N)Cn2cc(C3CCCCC3)nn2)nn1 [Compound 10] | 32 (≈ 56.7 µM) | 64 (≈ 113 µM) | 32 (≈ 56.7 µM) | 32 (≈ 56.7 µM) | 32 (≈ 56.7 µM) | 16 (≈ 28.3 µM) | 128 (≈ 227 µM) | > 32 | >32 | > 32 | 32 (≈ 56.7 µM) | > 32 | > 32 | > 32 | > 32 | > 32 | 32 (≈ 56.7 µM) |  |
| CC(C)CCc1cn(-c2ccccc2OCC(=O)N[C@H](CCCNC(=N)N)Cn2cc(C3CCCC3)nn2)nn1.Cl [Compound 11] | 32 | 64 | 32 | 32 | 32 | 16 | 128 | > 32 | >32 | > 32 | 32 | > 32 | > 32 | > 32 | > 32 | > 32 | 32 |  |
| CC(C)CCc1cn(-c2ccccc2OCC(=O)N[C@H](CCCNC(=N)N)Cn2cc(-c3ccc(F)cc3)nn2)nn1.Cl [Compound 12] | 32 | 64 | 32 | 32 | 32 | 16 | 128 | > 32 | >32 | > 32 | 32 | > 32 | > 32 | > 32 | > 32 | > 32 | 32 |  |
| CC(C)CCc1cn(-c2ccccc2OCC(=O)N[C@H](CCCNC(=N)N)Cn2cc(Cc3ccccc3)nn2)nn1.Cl [Compound 13] | 32 | 64 | 32 | 32 | 32 | 16 | 128 | > 32 | >32 | > 32 | 32 | > 32 | > 32 | > 32 | > 32 | > 32 | 32 |  |
| CC(C)CCc1cnnn1-c1ccccc1OCC(=O)N[C@H](CCCNC(=N)N)Cn1cc(C2CCCCC2)nn1 [Compound 14] | 128 (≈ 227 µM) | 128 (≈ 227 µM) | 32 (≈ 56.7 µM) | 32 (≈ 56.7 µM) | 32 (≈ 56.7 µM) | 32 (≈ 56.7 µM) | > 128 | > 32 | >32 | > 32 | 32 (≈ 56.7 µM) | > 32 | > 32 | > 32 | > 32 | > 32 | 32 (≈ 56.7 µM) |  |
| CC(C)CCc1cnnn1-c1c(OCC(=O)N[C@H](CCCCN)C(=O)N[C@H](CCCNC(=N)N)Cn2cc(Cc3ccccc3)nn2)ccc2ccccc12.Cl.Cl [Compound 45] | 128 | 128 | 16 | 16 | 64 | 4 | 128 | > 32 | >32 | > 32 | 16 | 32 | > 32 | > 32 | 32 | > 32 |  |  |
| Cl.Cl.N=C(N)NCCC[C@H](Cn1cc(Cc2ccccc2)nn1)NC(=O)[C@@H](CCCCN)NC(=O)COc1ccccc1-c1cn(Cc2ccccc2)nn1 [Compound 46] | 128 | 128 | 32 | 32 | 64 | 16 | 128 | > 32 | >32 | > 32 | 16 | > 32 | > 32 | > 32 | > 32 | 32 |  |  |
| OC(Cn1cncn1)(Cn1cncn1)c1ccc(F)cc1F [flucona-zole, fluconazole, reference compound] |  |  |  |  |  |  |  |  |  |  |  |  |  |  |  | 0.125 (≈ 0.408 µM) | 0.25 (≈ 0.816 µM) |  |
| CC/C(=C(\c1ccccc1)c1ccc(OCCN(C)C)cc1)c1ccccc1 [tamoxifen, reference compound] |  |  |  |  |  |  |  | 13.1 (≈ 35.3 µM) |  |  |  |  |  |  |  |  |  |  |
| CN[C@H](CC(C)C)C(=O)N[C@H]1C(=O)N[C@@H](CC(N)=O)C(=O)N[C@H]2C(=O)N[C@H]3C(=O)N[C@H](C(=O)N[C@H](C(=O)O)c4cc(O)cc(O)c4-c4cc3ccc4O)[C@H](O)c3ccc(c(Cl)c3)Oc3cc2cc(c3O[C@@H]2O[C@H](CO)[C@@H](O)[C@H](O)[C@H]2O[C@H]2C[C@](C)(N)[C@H](O)[C@H](C)O2)Oc2ccc(cc2Cl)[C@H]1O [vanc, vancomycin, reference compound] |  |  |  |  |  |  |  |  |  |  |  |  |  |  |  |  |  | MIC (C. difficile ATCC 700057; ATCC700057, read-out: MIC C. difficile ATCC 700057): 0.5 µg/mL (≈ 0.345 µM); MIC (C. difficile 132 (RT027)): 0.5 µg/mL (≈ 0.345 µM); MIC (S. aureus ATCC 29213; ATCC29213, read-out: MIC S. aureus ATCC 29213): 1 µg/mL (≈ 0.69 µM); MIC (S. aureus NCTC 10442; MRSA / NCTC 10442 / NCTC 104422, read-out: MIC S. aureus NCTC 104422): 1 µg/mL (≈ 0.69 µM); MIC (S. aureus NCTC 10442; read-out: MIC S. aureus NCTC 10442): 1 µg/mL (≈ 0.69 µM); MIC (E. faecalis ATCC 29212; ATCC29212, read-out: MIC E. faecalis ATCC 29212): 4 µg/mL (≈ 2.76 µM); MIC (S. pneumoniae ATCC 49619; ATCC49619, read-out: MIC S. pneumoniae ATCC 49619): 1 µg/mL (≈ 0.69 µM); MIC (E. coli ATCC 25922 [1]; ATCC25922, read-out: MIC E. coli ATCC 25922): > 16 µg/mL; MIC (S. aureus ATCC 43300): 1 µg/mL (≈ 0.69 µM) |
| colistin [reference compound] |  |  |  |  |  |  |  |  |  |  |  |  |  |  |  |  |  | MIC E. coli ATCC 25922 (E. coli ATCC 25922 [1]; Table 1): 0.125 µg/mL; MIC P. aeruginosa ATCC 27853 (P. aeruginosa ATCC 27853; Table S1): 0.25 µg/mL; MIC K. pneumoniae ATCC 700603 ([3]; Table S1, multi-drug resistant): 0.25 µg/mL; MIC A. baumannii ATCC 19606 (A. baumannii ATCC 19606; Table S1): 0.25 µg/mL; MIC E. coli ATCC 25922 (E. coli ATCC 25922 [4]; Table S1): 0.125 µg/mL |
